Two compounds from patent publication US20110166196A1, “TREATMENT AND PROPHYLAXIS OF EPILEPSY AND FEBRILE SEIZURES” (priority 2008, published 2011) can be followed below.

Assay [1] relates to synapses between CA3 and CA1 pyramidal cells. Nature of the assay: Field EPSP recordings in hippocampal slices. Type of assay: cell-based, rat. The method, then:
The maximal initial slope of fEPSPs was calculated using a LabVIEW-based program (National Instruments). The peak amplitude of each EPSC was measured by comparing a 10 msec time period immediately prior to the stimulus with the peak of the EPSC using this program as well. Occasionally polysynaptic responses were evoked, and in these cases, only the initial monosynaptic event was measured. To positively identify LTD, EPSCs measured every 10 seconds were averaged in 1 minute intervals. EPSC amplitude values were normalized to control pre-HFS EPSC amplitude values (baseline period of at least 5 minutes prior to HFS) and subjected to analysis of variance (ANOVA) repeated measures analysis with a post-hoc Dunnett's test (GraphPad Prism, Version 4). […] EPSC amplitude values 15 to 20 minutes post-HFS were compared between control LTD experiments and those carried out either in transgenic TRPV1^−/− mice, or in the presence of drug using a t-test (unpaired, two-tailed, with Welch's correction if the variances between the groups were unequal). To calculate the effects of capsaicin, 12-(S)-HPETE or WIN 55,212-2 application on basal excitatory glutamatergic transmission, normalized EPSC amplitudes or fEPSP slopes were averaged in the final 5 minutes of drug application and compared with EPSCs/EPSPs 5 minutes prior to drug application. In addition, to measure capsaicin's effects on holding current, the peak change in holding current was measured during bath application of 3 μM capsaicin. The n-values reported refer to the number of slices. All combined data are expressed as mean±the standard error of the mean (s.e.m.).

In assay [2] the test system is excitatory synapses onto CA1 hippocampal interneurons. Nature of the assay: Synaptic failure analysis using minimal stimulation. Type of assay: cell-based, rat. The following applies: capsaicin 1 μM; pre-capsaicin 38.4±3.5%; n=5. The method, then:
Slices were continuously perfused with ACSF warmed to 28-32° C. at a flow rate of 1-2 ml/min. Picrotoxin (100 μM) and D-AP5 (50 μM) were added to block GABAA receptor- and NMDAR-mediated synaptic transmission. Whole-cell patch clamp recordings were made from interneurons identified visually in the CA1 stratum radiatum of the hippocampus. […] Patch pipettes were filled with internal recording solution containing in mM: 117 cesium gluconate, 2.8 NaCl, 5 MgCl2, 20 HEPES, 2 ATP-Na^+, 0.3 GTP-Na^+ and 0.6 EGTA. In some experiments 2 μM capsazepine, 140 nM baicalein, or 250 μM GDPβS were also included in the intracellular patch pipette solution. In experiments with BAPTA-containing patch electrodes, EGTA was omitted from the intracellular solution and 25 or 40 mM BAPTA replaced a corresponding amount of cesium gluconate. EPSCs were stimulated at 0.1 Hz (100 μsec) using a bipolar stainless steel stimulating electrode placed in stratum radiatum at least 200 μm from the recorded cell. […] In early experiments, we measured rectification ratios of EPSCs evoked at +40 mV/−60 mV in the presence of 50 μM D-AP5, measured at the time of peak inward synaptic current seen at −70 mV (Lei and McBain, 2004).

Assay [3] relates to area CA3 stratum pyramidale. Nature of the assay: Heat-induced multi-unit activity (MUA) in hippocampal slices, field-potential recording. It counts as cell-based, mouse. The following applies: wild-type slices pre-treated with capsazepine; p<0.05 vs untreated wild-type, n=27. The method, then:
Coronal brain slices, 300-350 μm, were obtained from mice aged postnatal day 14-20 as previously described (Gibson et al., 2008; Gibson et al., 1999; McMahon & Kauer, 1997). Bathing perfusate was identical to previous except where indicated. A Haas-type interface chamber was used for field-potential recordings. Glass micropipettes were filled with 0.9% NaCl (resistance 400-700 kΩ). Simultaneous recordings were made in stratum pyramidale of CA1 and CA3 of each slice. Activity was recorded at 30° C. (5 min), ramped to 42° C. (5 min) and returned to 30° C. (10 min). Signals were amplified, digitally recorded at 10 kHz and stored (LabView).
For field-potential recordings, coronal slices, 350 μm thick, were obtained from P14-15 mice as previously described (Gibson et al., 2008; Gibson et al., 1999; McMahon & Kauer, 1997). Slices were kept at room temperature for at least 30 min until transferred to a 30° C. recording chamber. […] For all field-potential recordings, activity was recorded at 30° C. […] Signals were amplified, digitally recorded at 10 kHz and stored using an in-house LabView based program.
Multi-unit activity (MUA) was high-pass filtered at 500 Hz and spikes were detected using threshold-crossing criteria. […]
All combined data are expressed as mean±the standard error of the mean (s.e.m.). […]

Take `COc1cc(CNC(=O)CCCCC=CC(C)C)ccc1O` [capsaicin, 8-methyl-N-vanillyl-6-nonenamide]: the “fEPSP slopes after 10-15 minutes in capsaicin” value in assay [1] (1 μM capsaicin, P=0.58, n=5) is recorded as 102.8±5.4 % of pre-drug control values. Besides, the “effect on synaptic transmission at the CA3-CA1 synapse” value in assay [1] (10 μM capsaicin, often with depression of presynaptic fiber volley) was “depressed synaptic transmission”. Moreover, in assay [2], the “average synaptic failures in capsaicin” value stood at 73.5±7.8%.
In the case of `Oc1cc2c(cc1O)CN(C(=S)NCCc1ccc(Cl)cc1)CCC2` [capsazepine], in assay [3], the “incidence of heat-induced increased MUA in area CA3” value is “mimicked trpv1^−/− incidence rates of increased MUA in area CA3”.
